# ChEMBL document CHEMBL2434896, “Carbonic anhydrase inhibitors. Synthesis of heterocyclic 4-substituted pyridine-3-sulfonamide derivatives and their inhibition of the human cytosolic isozymes I and II and transmembrane tumor-associated isozymes IX and XII” (Eur J Med Chem, 2013)
# Active and inactive are the calls of the source. The calls are words filed in the database; no cut-off is given here.
# Assays:
# Malme-3M = test: Growth inhibition of human MALME-3M cells at 10 uM after 48 hrs by sulforhodamine B assay; format: functional; conditions: read-out: GI
# LOX IMVI = test: Growth inhibition of human LOXIMVI cells at 10 uM after 48 hrs by sulforhodamine B assay; format: functional
# SNB-19 = test: Growth inhibition of human SNB19 cells at 10 uM after 48 hrs by sulforhodamine B assay; format: functional
# SF-539 = test: Growth inhibition of human SF539 cells at 10 uM after 48 hrs by sulforhodamine B assay; format: functional
# SF-268 = test: Growth inhibition of human SF268 cells at 10 uM after 48 hrs by sulforhodamine B assay; format: functional
# KM12 = test: Growth inhibition of human KM12 cells at 10 uM after 48 hrs by sulforhodamine B assay; format: functional
# HT-29 = test: Growth inhibition of human HT-29 cells at 10 uM after 48 hrs by sulforhodamine B assay; format: functional
# HCT-15 = test: Growth inhibition of human HCT15 cells at 10 uM after 48 hrs by sulforhodamine B assay; format: functional
# HCT-116 = test: Growth inhibition of human HCT116 cells at 10 uM after 48 hrs by sulforhodamine B assay; format: functional; conditions: HCT-116, 48 h, read-out: GI
# HCC 2998 = test: Growth inhibition of human HCC2998 cells at 10 uM after 48 hrs by sulforhodamine B assay; format: functional
# COLO 205 = test: Growth inhibition of human COLO205 cells at 10 uM after 48 hrs by sulforhodamine B assay; format: functional
# NCI-H322M = test: Growth inhibition of human NCI-H322M cells at 10 uM after 48 hrs by sulforhodamine B assay; format: functional
# NCI-H226 = test: Growth inhibition of human NCI-H226 cells at 10 uM after 48 hrs by sulforhodamine B assay; format: functional; conditions: NCI-H226, 48 h, read-out: GI
# HOP-92 = test: Growth inhibition of human HOP92 cells at 10 uM after 48 hrs by sulforhodamine B assay; format: functional; conditions: HOP-92, 48 h, read-out: GI
# HOP-62 = test: Growth inhibition of human HOP62 cells at 10 uM after 48 hrs by sulforhodamine B assay; format: functional
# A549 = test: Growth inhibition of human A549/ATCC cells at 10 uM after 48 hrs by sulforhodamine B assay; format: functional; conditions: A549, 48 h, read-out: GI
# SR = test: Growth inhibition of human SR cells at 10 uM after 48 hrs by sulforhodamine B assay; format: functional; conditions: read-out: GI
# MOLT-4 = test: Growth inhibition of human MOLT4 cells at 10 uM after 48 hrs by sulforhodamine B assay; format: functional
# K562 = test: Growth inhibition of human K562 cells at 10 uM after 48 hrs by sulforhodamine B assay; format: functional; conditions: K562, 48 h, read-out: GI
# HL-60(TB) = test: Growth inhibition of human HL-60(TB) cells at 10 uM after 48 hrs by sulforhodamine B assay; format: functional
# CCRF-CEM = test: Growth inhibition of human CCRF-CEM cells at 10 uM after 48 hrs by sulforhodamine B assay; format: functional; conditions: read-out: GI
# Carbonic anhydrase 9 = Carbonic anhydrase 9 (Homo sapiens, UniProt Q16790); test: Inhibition of human carbonic anhydrase 9 after 15 mins by stopped flow CO2 hydration assay
# MDA-MB-468 = test: Growth inhibition of human MDA-MB-468 cells at 10 uM after 48 hrs by sulforhodamine B assay; format: functional; conditions: MDA-MB-468, 48 h, read-out: GI
# T47D = test: Growth inhibition of human T47D cells at 10 uM after 48 hrs by sulforhodamine B assay; format: functional; conditions: read-out: GI
# BT-549 = test: Growth inhibition of human BT549 cells at 10 uM after 48 hrs by sulforhodamine B assay; format: functional; conditions: BT-549, 48 h, read-out: GI
# MDA-MB-231 = test: Growth inhibition of human MDA-MB-231 cells at 10 uM after 48 hrs by sulforhodamine B assay; format: functional
# MCF7 = test: Growth inhibition of human MCF7 cells at 10 uM after 48 hrs by sulforhodamine B assay; format: functional
# DU-145 = test: Growth inhibition of human DU145 cells at 10 uM after 48 hrs by sulforhodamine B assay; format: functional
# UO-31 = test: Growth inhibition of human UO31 cells at 10 uM after 48 hrs by sulforhodamine B assay; format: functional; conditions: UO-31, 48 h, read-out: GI
# TK-10 = test: Growth inhibition of human TK10 cells at 10 uM after 48 hrs by sulforhodamine B assay; format: functional
# SN12C = test: Growth inhibition of human SN12C cells at 10 uM after 48 hrs by sulforhodamine B assay; format: functional; conditions: read-out: GI
# RXF 393 = test: Growth inhibition of human RXF393 cells at 10 uM after 48 hrs by sulforhodamine B assay; format: functional
# CAKI-1 = test: Growth inhibition of human CAKI-1 cells at 10 uM after 48 hrs by sulforhodamine B assay; format: functional; conditions: CAKI-1, 48 h, read-out: GI
# A498 = test: Growth inhibition of human A498 cells at 10 uM after 48 hrs by sulforhodamine B assay; format: functional; conditions: A498, 48 h, read-out: GI
# 786-0 = test: Growth inhibition of human 786-0 cells at 10 uM after 48 hrs by sulforhodamine B assay; format: functional
# OVCAR-8 = test: Growth inhibition of human OVCAR8 cells at 10 uM after 48 hrs by sulforhodamine B assay; format: functional; conditions: OVCAR-8, 48 h, read-out: GI
# OVCAR-5 = test: Growth inhibition of human OVCAR5 cells at 10 uM after 48 hrs by sulforhodamine B assay; format: functional
# OVCAR-3 = test: Growth inhibition of human OVCAR3 cells at 10 uM after 48 hrs by sulforhodamine B assay; format: functional
# IGROV-1 = test: Growth inhibition of human IGROV1 cells at 10 uM after 48 hrs by sulforhodamine B assay; format: functional
# UACC-62 = test: Growth inhibition of human UACC62 cells at 10 uM after 48 hrs by sulforhodamine B assay; format: functional
# UACC-257 = test: Growth inhibition of human UACC257 cells at 10 uM after 48 hrs by sulforhodamine B assay; format: functional
# SK-MEL-28 = test: Growth inhibition of human SK-MEL-28 cells at 10 uM after 48 hrs by sulforhodamine B assay; format: functional, cell-based
# SK-MEL-2 = test: Growth inhibition of human SK-MEL-2 cells at 10 uM after 48 hrs by sulforhodamine B assay; format: functional
# M14 = test: Growth inhibition of human M14 cells at 10 uM after 48 hrs by sulforhodamine B assay; format: functional
# Hs-578T = test: Growth inhibition of human Hs 578T cells at 10 uM after 48 hrs by sulforhodamine B assay; format: functional
# NCI/ADR-RES = test: Growth inhibition of human NCI-ADR-RES cells at 10 uM after 48 hrs by sulforhodamine B assay; format: functional
smiles,measurement,setting,value
NS(=O)(=O)c1cnccc1N1CCN(c2ccccn2)CC1,inhibition of growth at 10 µM,Malme-3M,8%
same,inhibition of growth at 10 µM,LOX IMVI; read-out: GI,9%
same,growth inhibition (GI),SNB-19,inactive
same,growth inhibition (GI),SF-539,inactive
same,growth inhibition (GI),SF-268,inactive
same,growth inhibition (GI),KM12,inactive
same,growth inhibition (GI),HT-29,inactive
same,growth inhibition (GI),HCT-15,inactive
same,inhibition of growth at 10 µM,HCT-116,1%
same,growth inhibition (GI),HCC 2998,inactive
same,growth inhibition (GI),COLO 205,inactive
same,growth inhibition (GI),NCI-H322M,inactive
same,inhibition of growth at 10 µM,NCI-H226,5%
same,inhibition of growth at 10 µM,HOP-92,11%
same,growth inhibition (GI),HOP-62,inactive
same,inhibition of growth at 10 µM,A549,2%
same,inhibition of growth at 10 µM,SR,12%
same,growth inhibition (GI),MOLT-4,inactive
same,inhibition of growth at 10 µM,K562,4%
same,growth inhibition (GI),HL-60(TB),inactive
same,inhibition of growth at 10 µM,CCRF-CEM,5%
same,Ki,Carbonic anhydrase 9,113 nM
same,inhibition of growth at 10 µM,MDA-MB-468,1%
same,inhibition of growth at 10 µM,T47D,8%
same,inhibition of growth at 10 µM,BT-549,6%
same,growth inhibition (GI),MDA-MB-231,inactive
same,inhibition of growth at 10 µM,"MCF7; MCF7, 48 h, read-out: GI",3%
same,inhibition of growth at 10 µM,"DU-145; DU-145, 48 h, read-out: GI",8%
same,inhibition of growth at 10 µM,UO-31,11%
same,growth inhibition (GI),TK-10,inactive
same,inhibition of growth at 10 µM,SN12C,4%
same,growth inhibition (GI),RXF 393,inactive
same,inhibition of growth at 10 µM,CAKI-1,10%
same,inhibition of growth at 10 µM,A498,24%
same,inhibition of growth at 10 µM,"786-0; 786-0, 48 h, read-out: GI",2%
same,inhibition of growth at 10 µM,OVCAR-8,12%
same,growth inhibition (GI),OVCAR-5,inactive
same,growth inhibition (GI),OVCAR-3,inactive
same,growth inhibition (GI),IGROV-1,inactive
same,growth inhibition (GI),UACC-62,inactive
same,inhibition of growth at 10 µM,"UACC-257; UACC-257, 48 h, read-out: GI",2%
same,growth inhibition (GI),SK-MEL-28,inactive
same,inhibition of growth at 10 µM,"SK-MEL-2; SK-MEL-2, 48 h, read-out: GI",1%
same,growth inhibition (GI),M14,inactive
NS(=O)(=O)c1cnccc1N1CCC(Cc2ccccc2)CC1,inhibition of growth at 10 µM,Malme-3M,4%
same,growth inhibition (GI),LOX IMVI,inactive
same,inhibition of growth at 10 µM,"SNB-19; SNB-19, 48 h, read-out: GI",2%
same,inhibition of growth at 10 µM,"SF-539; SF-539, 48 h, read-out: GI",4%
same,growth inhibition (GI),SF-268,inactive
same,inhibition of growth at 10 µM,"KM12; KM12, 48 h, read-out: GI",2%
same,inhibition of growth at 10 µM,"HT-29; HT-29, 48 h, read-out: GI",2%
same,inhibition of growth at 10 µM,"HCT-15; HCT-15, 48 h, read-out: GI",2%
same,inhibition of growth at 10 µM,HCT-116,10%
same,growth inhibition (GI),HCC 2998,inactive
same,growth inhibition (GI),COLO 205,inactive
same,growth inhibition (GI),NCI-H322M,inactive
same,inhibition of growth at 10 µM,NCI-H226,12%
same,inhibition of growth at 10 µM,HOP-92,39%
same,growth inhibition (GI),HOP-62,inactive
same,inhibition of growth at 10 µM,A549,1%
same,inhibition of growth at 10 µM,SR,18%
same,inhibition of growth at 10 µM,"MOLT-4; MOLT-4, 48 h, read-out: GI",9%
same,inhibition of growth at 10 µM,K562,9%
same,inhibition of growth at 10 µM,"HL-60(TB); HL-60, 48 h, read-out: GI",3%
same,inhibition of growth at 10 µM,CCRF-CEM,3%
same,Ki,Carbonic anhydrase 9,136 nM
same,inhibition of growth at 10 µM,MDA-MB-468,8%
same,inhibition of growth at 10 µM,T47D,10%
same,inhibition of growth at 10 µM,BT-549,13%
same,growth inhibition (GI),Hs-578T,inactive
same,growth inhibition (GI),MDA-MB-231,inactive
same,growth inhibition (GI),MCF7,inactive
same,growth inhibition (GI),DU-145,inactive
same,inhibition of growth at 10 µM,UO-31,21%
same,growth inhibition (GI),TK-10,inactive
same,inhibition of growth at 10 µM,SN12C,1%
same,growth inhibition (GI),RXF 393,inactive
same,inhibition of growth at 10 µM,CAKI-1,3%
same,inhibition of growth at 10 µM,A498,8%
same,growth inhibition (GI),786-0,inactive
same,growth inhibition (GI),NCI/ADR-RES,inactive
same,inhibition of growth at 10 µM,OVCAR-8,1%
same,inhibition of growth at 10 µM,"OVCAR-5; OVCAR-5, 48 h, read-out: GI",1%
same,growth inhibition (GI),OVCAR-3,inactive
same,inhibition of growth at 10 µM,"IGROV-1; IGROV-1, 48 h, read-out: GI",3%
same,inhibition of growth at 10 µM,"UACC-62; UACC-62, 48 h, read-out: GI",3%
same,growth inhibition (GI),UACC-257,inactive
same,growth inhibition (GI),SK-MEL-28,inactive
same,growth inhibition (GI),SK-MEL-2,inactive
same,growth inhibition (GI),M14,inactive
